Results taken from the supplement of paper PMC12317010.
Counter-ions that a name gives are not always drawn.

Experiment: collision cross section in nitrogen (drift tube, single-field); higher = larger gas-phase ion size
[1] = ion type: [M-H], ion source: ESI, ion mode: Negative
[2] = ion type: [M+H], ion source: ESI, ion mode: Positive
[3] = ion type: [M+Na], ion source: ESI, ion mode: Positive
[4] = ion type: [M+H], ion source: APCI, ion mode: Positive
[5] = ion type: [M+], ion source: APCI, ion mode: Positive
[6] = ion source: APCI, ion mode: Positive, ion type: [M]+ (permanent cation)
[7] = ion source: ESI, ion mode: Positive, ion type: [M]+ (permanent cation)
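Further: chemical standards at 10 µM analysed by drift tube IMS-QTOF MS in about 3.95 torr nitrogen, mean of duplicate injections differing ≤1%, mass error below 10 ppm.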

Row | collision cross section in nitrogen [1] [Å²] | collision cross section in nitrogen [2] [Å²] | collision cross section in nitrogen [3] [Å²] | collision cross section in nitrogen [4] [Å²] | Compound | further results
1 | 282.6 | 286.8 | 294.4 |  | CC1(C)[C@@H](O[C@H]2O[C@H](C(=O)O)[C@@H](O)[C@H](O)[C@H]2O[C@@H]2O[C@H](C(=O)O)[C@@H](O)[C@H](O)[C@H]2O)CC[C@]2(C)[C@H]3C(=O)C=C4[C@@H]5C[C@@](C)(C(=O)O)CC[C@]5(C)CC[C@@]4(C)[C@]3(C)CC[C@@H]12 [Ammonium glycyrrhizinate trihydrate] | 
2 |  | 172.6 |  | 172.4 | Clc1ccc2c(c1)C(N1CCNCC1)=Nc1ccccc1O2 [Amoxapine] | 
3 | 140.7 | 143.3 |  | 142.7 | Nc1cc(-c2ccncc2)c[nH]c1=O [Amrinone] | 
4 | 178.4 | 183.5 | 188.9 |  | CC(C)(C#N)c1cc(Cn2cncn2)cc(C(C)(C)C#N)c1 [Anastrozole] | 
5 | 252.1 | 263.3 | 259.8 | 263.2 | CC(C)(C)c1cc(CCC(=O)NCCCCCCNC(=O)CCc2cc(C(C)(C)C)c(O)c(C(C)(C)C)c2)cc(C(C)(C)C)c1O [Antioxidant 1098] | collision cross section in nitrogen [5]: 271.7 Å²
6 | 235.7 | 260.4 | 238.6 |  | CCCCN1C(=O)[C@@H]([C@H](O)C2CCCCC2)NC(=O)C12CCN(Cc1ccc(Oc3ccc(C(=O)O)cc3)cc1)CC2 [Aplaviroc hydrochloride] | 
7 |  | 162.5 |  | 162.3 | CN1CCc2cccc3c2[C@H]1Cc1ccc(O)c(O)c1-3 [Apomorphine hydrochloride] | 
8 | 207.8 | 217 | 221.7 |  | C[C@@H]1CCN(C(=O)[C@H](CCCNC(=N)N)NS(=O)(=O)c2cccc3c2NC[C@H](C)C3)[C@@H](C(=O)O)C1 [Argatroban monohydrate] | 
9 | 207.5 | 216.7 | 221.2 |  | CC1CNc2c(cccc2S(=O)(=O)N[C@@H](CCCNC(=N)N)C(=O)N2CC[C@@H](C)C[C@@H]2C(=O)O)C1 (stereo partly specified) [Argatroban] | 
10 | 202.4 |  |  |  | CCCCCCCCCCCCCCCC(=O)OC[C@H](O)[C@H]1OC(=O)C(O)=C1O [Ascorbyl palmitate] | 
11 |  | 157.8 | 164.2 | 157.9 | CC(C)NCC(O)COc1ccc(CC(N)=O)cc1 (stereo unspecified) [Atenolol] | 
12 | 228.6 | 230.3 | 232.2 | 229.8 | CC(C)c1c(C(=O)Nc2ccccc2)c(-c2ccccc2)c(-c2ccc(F)cc2)n1CC[C@@H](O)C[C@@H](O)CC(=O)O [Atorvastatin calcium] | collision cross section in nitrogen [5]: 224.3 Å²
13 | 228.4 | 229.7 | 231.4 | 229.1 | CC(C)c1c(C(=O)Nc2ccccc2)c(-c2ccccc2)c(-c2ccc(F)cc2)n1CC[C@@H](O)C[C@@H](O)CC(=O)O [Atorvastatin] | 
14 |  | 169.8 |  | 168.3 | CN(C)c1ccc(C(=N)c2ccc(N(C)C)cc2)cc1 [Auramine hydrochloride] | 
15 |  | 148.8 |  | 148.2 | O=C1CCCCCCCCCCCN1 [Azacyclotridecan-2-one] | 
16 | 155.5 |  | 172.4 | 158.6 | Cn1cnc([N+](=O)[O-])c1Sc1ncnc2nc[nH]c12 [Azathioprine] | 
17 | 211.8 |  |  |  | O=S(=O)(O)c1ccc(N=Nc2cc(S(=O)(=O)O)c3ccccc3c2O)c2ccccc12 [Azorubine] | 
18 | 183.9 | 186.1 | 201.9 |  | O=S(=O)(c1ccc(OCc2ccccc2)cc1)c1ccccc1O [BPS-MPE4] | 

Row | collision cross section in nitrogen [1] [Å²] | collision cross section in nitrogen [2] [Å²] | collision cross section in nitrogen [3] [Å²] | collision cross section in nitrogen [4] [Å²] | Compound | further results
19 | 137.4 |  |  |  | CCCCC(CC)C(=O)O (stereo unspecified) [Barium bis(2-ethylhexanoate)] | 
20 |  |  |  |  | CCNc1ccc(C(=C2C=CC(=[N+](CC)CC)C=C2)c2ccc(N(CC)CC)cc2)c2ccccc12 [Basic Blue 7] | collision cross section in nitrogen [6]: 241.9 Å²; collision cross section in nitrogen [7]: 240.6 Å²
21 |  |  | 165.4 |  | CCOC(=O)Cn1c(=O)sc2cccc(Cl)c21 [Benazolin-ethyl] | 
22 |  |  |  |  | c1ccc2cc3c(ccc4ccccc43)cc2c1 [Benz(a)anthracene] | collision cross section in nitrogen [5]: 146.3 Å²
23 |  |  | 150.9 |  | O=C(O)CONC(=O)c1ccccc1 [Benzadox] | 
24 |  |  |  |  | CCCCCCCC[N+](C)(C)Cc1ccccc1 [Benzalkonium chloride C8 (BAC C8)] | collision cross section in nitrogen [6]: 170.1 Å²; collision cross section in nitrogen [7]: 171.3 Å²
25 |  |  |  |  | CCCCCCCCCCCC[N+](C)(C)Cc1ccccc1 [Benzalkonium chloride C12 (BAC C12)] | collision cross section in nitrogen [6]: 193 Å²; collision cross section in nitrogen [7]: 193.9 Å²
26 |  |  |  |  | CCCCCCCCCCCCCCCC[N+](C)(C)Cc1ccccc1 [Benzalkonium chloride C16 (BAC C16)] | collision cross section in nitrogen [6]: 208.9 Å²
27 |  |  |  |  | CCCCCCCCCCCCCCCCCC[N+](C)(C)Cc1ccccc1 [Benzalkonium chloride C18 (BAC C18)] | collision cross section in nitrogen [6]: 215.1 Å²; collision cross section in nitrogen [7]: 216.6 Å²
28 |  | 125 |  | 124.7 | N=C(N)c1ccccc1 [Benzenecarboximidamide, monohydrochloride] | 
29 | 127.2 |  |  |  | O=S(=O)(O)c1ccccc1 [Benzenesulfonic acid] | 
30 |  | 121.8 |  | 121 | c1ccc2[nH]cnc2c1 [Benzimidazole] | 
31 |  |  |  |  | c1ccc2c(c1)c1cccc3ccc4cccc2c4c31 [Benzo[e]pyrene] | collision cross section in nitrogen [5]: 149.7 Å²
32 |  |  |  |  | c1ccc2cc3c(cc2c1)-c1cccc2cccc-3c12 [Benzo[k]fluoranthene] | collision cross section in nitrogen [5]: 151.3 Å²
33 | 123.7 |  |  |  | Oc1nc2ccccc2s1 [Benzothiazolone] | 
34 | 158.5 |  |  |  | O=C(OCc1ccccc1)c1ccc(O)cc1 [Benzyl 4-hydroxybenzoate] | 
35 | 153.3 |  |  |  | O=C(OCc1ccccc1)c1ccccc1O [Benzyl salicylate] | 

Row | Compound | collision cross section in nitrogen [1] [Å²] | collision cross section in nitrogen [2] [Å²] | collision cross section in nitrogen [3] [Å²] | collision cross section in nitrogen [4] [Å²] | further results
36 | Nc1nc[nH]n1 [Amitrole] | 113.2 |  |  |  | 
37 | CCOP(=S)(S)OCC [Ammonium diethyl dithiophosphate] | 134.4 |  |  |  | 
38 | O=[N+]([O-])O [Ammonium nitrate] | 104.5 |  |  |  | 
39 | c1cncc([C@@H]2CCCCN2)c1 [Anabasine] |  | 135.9 |  | 136.4 | 
40 | COc1ccc(C(O)(c2cncnc2)C2CC2)cc1 (stereo unspecified) [Ancymidol] |  | 164.2 |  | 164.3 | 
41 | C[As+](C)(C)CC(=O)[O-] [Arsenobetaine] |  | 118 |  |  | 
42 | COc1ccc(CCN2CCC(Nc3nc4ccccc4n3Cc3ccc(F)cc3)CC2)cc1 [Astemizole] | 227.8 | 210.8 | 213.2 |  | 
43 | COC(=O)NS(=O)(=O)c1ccc(N)cc1 [Asulam] | 150.4 |  |  |  | 
44 | CCNc1nc(NC(C)C)nc(OC)n1 [Atraton] |  | 150.5 | 168.1 |  | 
45 | CCNc1nc(Cl)nc(NC(C)C)n1 [Atrazine] |  | 149.5 |  | 149 | 
46 | COP(=O)(OC)SCn1c(=O)oc2cc(Cl)cnc21 [Azamethiphos] |  | 161.5 | 171.2 | 160.6 | 
47 | CCOP(=S)(OCC)SCn1nnc2ccccc2c1=O [Azinphos-ethyl] |  |  | 177.9 |  | 
48 | CSc1nc(N=[N+]=[N-])nc(NC(C)C)n1 [Aziprotryne] |  | 148.9 |  | 149.1 | 
49 | c1ccc(N=Nc2ccccc2)cc1 [Azobenzene] |  |  |  | 139.5 | 
50 | CO/C=C(/C(=O)OC)c1ccccc1Oc1cc(Oc2ccccc2C#N)ncn1 [Azoxystrobin] |  | 195 | 199 | 196.5 | 
51 | CNC(=O)Oc1cccc2c1OC(C)(C)O2 [Bendiocarb] |  |  | 157 |  | 
52 | CCCCN(CC)c1c([N+](=O)[O-])cc(C(F)(F)F)cc1[N+](=O)[O-] [Benfluralin] | 168.5 |  |  |  | 
53 | CCOC(=O)CCN(SN(C)C(=O)Oc1cccc2c1OC(C)(C)C2)C(C)C [Benfuracarb] |  | 197.3 | 201.5 | 197.3 | 
54 | O=C(Nc1ccccc1)c1ccccc1I [Benodanil] | 155.4 | 146.3 | 161.1 | 146.6 | 
55 | COC(=O)c1ccccc1CS(=O)(=O)NC(=O)Nc1nc(OC)cc(OC)n1 [Bensulfuron-methyl] |  |  | 197.8 |  | 
56 | CC(C)N1C(=O)c2ccccc2NS1(=O)=O [Bentazone] | 146.9 |  |  |  | 
57 | CCOC(=O)Cc1ccccc1 [Benzeneacetic acid, ethyl ester] | 144.3 |  |  |  | 
58 | c1ccc2c(c1)ccc1ncccc12 [Benzo(f)quinoline] |  | 134.8 |  | 134.7 | collision cross section in nitrogen [5]: 130.3 Å²
59 | CCCCOC(=O)c1ccccc1C(=O)OCc1ccccc1 [Benzyl butyl phthalate] |  |  | 178.3 |  | 
